Literature values as cited in patent US8748394B2, “Apo A-I mimetic peptides and methods of treatment” (Abbott Cardiovascular Systems Inc., priority 2007, dated 2014).
“Also recorded” adds a separate entry of the source. Square brackets hold non-standard residues; d marks the D form. Ends that are not written are not given here.

System: reverse cholesterol transport
Details: for function in reverse cholesterol transport in vitro: when a phospholipid complex is presented; for effectiveness in reverse cholesterol transport: without a lipid complex (non-complex form)

Substance	function in reverse cholesterol transport in vitro	effectiveness in reverse cholesterol transport	need of phospholipid complex for effective reverse cholesterol transport
DWFKAFYDKVAEKFKEAF [D-4F] ([dD][dW][dF][dK][dA][dF][dY][dD][dK][dV][dA][dE][dK][dF][dK][dE][dA][dF]) [18 amino acid Apo A-I mimetic peptide 4F, D enantiomer]	function more effectively	effective in reverse cholesterol transport without a lipid complex; also recorded: demonstrated an ability to function in a non-complex form	
Ac-PALEDLRQGLLPVLESFKVFLSALEEYTKKLNTQ-NH2 [33-mer peptide mimetic, 33-mer peptide, helices 9/10]			requires phospholipid complex formation
DWFKAFYDKVAEKFKEAF [L-4F] (not fully specified) [18 amino acid Apo A-I mimetic peptide 4F, L enantiomer]	function more effectively	demonstrated an ability to function in a non-complex form	
